According to PMC8042770, “Odorant Receptors for Detecting Flowering Plant Cues Are Functionally Conserved across Moths and Butterflies” (Molecular Biology and Evolution, 2020):
“Also recorded” adds a separate entry of the source.

What was measured:
HarmOR59 = HarmOR59 (Helicoverpa armigera, UniProt A0A7T3KAU6); test: Xenopus oocyte two-electrode voltage clamp, HarmOR59 + Orco; assay type: cell-based
Description: (§1) In order to expand our analysis on the response properties of HarmORs, we conducted dose–response analyses for the 28 functional HarmORs. […] Six HarmORs (OR3, 22, 48, 50, 56, and 66) could not be activated by any ligand at 10^−5 M. For the other 22 HarmORs, dose–response curves were generated and EC50 values of their major ligands were calculated (fig. 2A and supplementary table S2, Supplementary Material online). The HarmOR repertoire was highly efficient in terpene detection, since the lowest EC50 values were obtained for such compounds. Many of these terpenes have been proposed to be defensive chemicals of plants. […] DMNT is also one of the oviposition deterring compounds found in larval frass of some Lepidoptera species such as S. littoralis ([Anderson et al. 1993]).
(§2) Functional characterization of individual ORs was performed by heterologous expression in Xenopus oocytes combined with a two-electrode voltage-clamp system ([Wang et al. 2010]). Briefly, the full-length gene of each OR and Orco were subcloned into the eukaryotic expression vector pT7TS. cRNAs were generated from linearized expression vectors using the mMESSAGE mMACHINE T7 kit (Ambion, Austin, TX). Then, the cRNA mixture of ORx and Orco (27.6 ng each) was injected (Nanoliter 2010, WPI Inc., Sarasota, FL) into oocytes (stage V–VII). The respective Orcos of different species were used for functional studies of OR42 orthologs except for the four butterfly species (V. tameamea, P. xuthus, D. plexippus, and P. rapae), in which we used the Orco from P. xuthus. After incubation in nutrient solution at 18 °C for 3–5 days, the response profile of each oocyte to multiple plant odorants was recorded via a two-electrode voltage clamp (OC-725C oocyte clamp, Warner Instruments, Hamden, CT) at a holding potential of −80 mV. Data were acquired by using a Digidata 1440 A and were analyzed by pCLAMP 10.2 software (Axon Instruments Inc., Union City, CA).
(§3) Stock solutions of each odorant were prepared at 1 M using DMSO as a solvent, and each odorant was diluted in 1× Ringer’s solution to the indicated concentrations for electrophysiological recording. For functional screening of each HarmOR, a panel of 67 odorants belonging to three types of chemical classes: terpenes, aromatics, and aliphatics (short-chain fatty acid) were used (supplementary table S1, Supplementary Material online). For functional studies of OR42 orthologs from different species, six odorants including PAA, benzaldehyde, (E)-2-hexen-1-al, cinnamaldehyde, 2-phenylethanol, and heptanal were used.

HarmOR10 = HarmOR10 (Helicoverpa armigera, UniProt A0A0G2RLT6); test: Xenopus oocyte two-electrode voltage clamp, HarmOR10 + Orco; assay type: cell-based
Description: as §1
(§4) Functional characterization of individual ORs was performed by heterologous expression in Xenopus oocytes combined with a two-electrode voltage-clamp system ([Wang et al. 2010]). […] After incubation in nutrient solution at 18 °C for 3–5 days, the response profile of each oocyte to multiple plant odorants was recorded via a two-electrode voltage clamp (OC-725C oocyte clamp, Warner Instruments, Hamden, CT) at a holding potential of −80 mV. Data were acquired by using a Digidata 1440 A and were analyzed by pCLAMP 10.2 software (Axon Instruments Inc., Union City, CA). […]

HarmOR19 = target: T1, HarmOR19 (Helicoverpa armigera, UniProt A0A7T3N0J7); test: Xenopus oocyte two-electrode voltage clamp, HarmOR19 + Orco; assay type: cell-based; conditions: dose response in oocytes, unit M
T1 sequence (A0A7T3N0J7 1-402): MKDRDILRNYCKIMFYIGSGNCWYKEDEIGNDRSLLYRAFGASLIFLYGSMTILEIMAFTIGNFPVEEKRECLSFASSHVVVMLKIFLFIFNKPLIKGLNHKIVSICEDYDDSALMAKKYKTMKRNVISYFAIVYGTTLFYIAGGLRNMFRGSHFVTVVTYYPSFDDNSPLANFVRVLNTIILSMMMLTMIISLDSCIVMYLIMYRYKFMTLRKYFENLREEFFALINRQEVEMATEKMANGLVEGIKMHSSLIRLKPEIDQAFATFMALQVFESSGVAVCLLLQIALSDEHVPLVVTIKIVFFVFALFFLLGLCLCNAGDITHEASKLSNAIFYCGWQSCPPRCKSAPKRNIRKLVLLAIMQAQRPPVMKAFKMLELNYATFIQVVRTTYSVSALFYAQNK
Description: as §1
as §2, with “CA). […]” for “CA).”

HarmOR31 = HarmOR31 (Helicoverpa armigera, UniProt A0A7T3N2E9); test: Xenopus oocyte two-electrode voltage clamp, HarmOR31 + Orco; assay type: cell-based; conditions: HarmOR31; dose response in oocytes; unit M; read-out: EC50
Excerpt: In order to expand our analysis on the response properties of HarmORs, we conducted dose–response analyses for the 28 functional HarmORs. […] Many of these terpenes have been proposed to be defensive chemicals of plants.
Briefly, the full-length gene of each OR and Orco were subcloned into the eukaryotic expression vector pT7TS. cRNAs were generated from linearized expression vectors using the mMESSAGE mMACHINE T7 kit (Ambion, Austin, TX). […] The respective Orcos of different species were used for functional studies of OR42 orthologs except for the four butterfly species (V. tameamea, P. xuthus, D. plexippus, and P. rapae), in which we used the Orco from P. xuthus.
as §3

HarmOR67 = HarmOR67 (Helicoverpa armigera, UniProt A0A7T3KAH1); test: Xenopus oocyte two-electrode voltage clamp, HarmOR67 + Orco; assay type: cell-based; conditions: dose response in oocytes, unit M
Description: as §1
as §2, with “CA). […]” for “CA).”

HarmOR42 = HarmOR42 (Helicoverpa armigera, UniProt A0A7T3KAF6); test: Xenopus oocyte two-electrode voltage clamp, HarmOR42 + Orco; assay type: cell-based; conditions: 67 odorants at 10^−4 M
Excerpt: In preliminary screening, we used a high dosage (10^−4 M) of odorants. […] Most functional ORs responded robustly to multiple odorants. The strongest response (up to ∼6,000 nanoampere, nA) we detected was that of HarmOR42 toward the aromatic compound PAA. Further, the response profiles of the 28 HarmORs appeared to be highly differentiated, with no apparent overlap in their tuning spectra (with the exception of HarmOR12 and 36) according to functional cluster analysis (fig. 1A).
as §1, §2, §3

[1] = system: HarmOR42 orthologs from 11 lepidopteran species; test: Xenopus oocyte voltage clamp of HarmOR42 orthologs, six-odorant screen; assay type: cell-based; conditions: six compounds at 10^−4 M; 11 species
Excerpt: We gathered additional experimental evidence to support this conservation of a PAA-sensing function by performing in vitro functional characterization of HarmOR42 orthologs from 11 lepidopteran species belonging to eight families (fig. 5B). […] It should be noted that the species studied here included three Noctuidae species (H. armigera, H. assulta, and Mythimna separata), four moths from Bombycidae (Bombyx mori), Crambidae (Chilo suppressalis), Sphingidae (Manduca sexta), and Tortricidae (Grapholitha molesta) ([Mitter et al. 2017]; [Kawahara et al. 2019]), and four diurnal butterfly species from diverse families (Vanessa tameamea, Papilio xuthus, Danaus plexippus, and Pieris rapae) (fig. 5B). […]
as §4

EsemOR19 = test: Xenopus oocyte voltage clamp of EsemOR19; assay type: cell-based, Eriocrania semipurpurella; conditions: 10^−4 M
Excerpt: We also examined the response profile of EsemOR19 from E. semipurpurella, an OR that falls close to the HarmOR42-defined clade but that is not considered as a HarmOR42 ortholog. […] We also characterized the function of RnubOR13 from R. nubila (Trichoptera), a species from a sister order of Lepidoptera. […] Unfortunately, the putative E. semipurpurella OR that would consist of EsemOR34 + 35 and that falls at the base of the HarmOR42 clade could not be tested as it is incomplete.
Full-length coding sequences of 45 ORs (including Orco) of H. armigera, and OR42 and Orco orthologs in B. mori, H. assulta, G. molesta, and M. separate were amplified from the antennal cDNA of each species adults by PCR with specific primer pairs of each gene. […]
as §4

[2] = system: H. armigera moth antennae; test: Electroantennography (EAG), wild-type vs HarmOR42 knock-out moths; assay type: in vivo, Helicoverpa armigera; conditions: single odorants, 1 μg
Excerpt: We next conducted a loss-of-function study by generating a HarmOR42-lacking H. armigera strain by CRISPR/Cas9 targeting the first coding exon. Homozygous mutants were obtained with a large segment deletion of 203 bp and a 6-bp nonhomologous insertion in the genome (fig. 6B), introducing a premature stop codon in the coding sequence. […] The most likely hypothesis is that HarmOR42 is not the major receptor for sensing this compound in H. armigera. As a control, we tested the response of male moths to the sex pheromone component Z11-16: Ald that is not a ligand of HarmOR42. As expected, we observed no difference between the EAG responses of mutant and wild-type moths to this compound.
The antennae of 2- to 3-day-old virgin male and female moths were cut at the base of the flagellum. After removing the tip, one antenna was inserted between two glass electrodes filled with 0.1 M KCl solution. In each test, a 10-μl solution of each odorant was added onto a piece of filter paper (0.5 cm × 0.5 cm) and then inserted into a Pasteur pipette. About 100 ng/μl stock solutions of individual odorants and different doses of the mixture IAC were prepared with paraffin oil. A continuous airflow of 30 ml/s was produced by a stimulus controller (CS-55, Syntech, Kirchzarten, Germany). Odor stimulation was controlled by a puff of purified air (0.2 s at 10 ml/s airflow) from the CS-55. EAG signals were amplified with a 10× AC/DC headstage preamplifier (Syntech) and further acquired with an Intelligent Data Acquisition Controller (IDAC-4-USB, Syntech) ([Cao et al. 2016]). The signals were recorded, monitored, and analyzed using Syntech EAG-software (Syntech, Germany). The EAG response values for each compound were calculated by subtracting the value of the same antennae corresponding to a solvent blank of paraffin oil.

HarmOR43 = target: T2, HarmOR43 (Helicoverpa armigera, UniProt A0A7T3KAF8); test: Xenopus oocyte two-electrode voltage clamp, HarmOR43 + Orco; assay type: cell-based; conditions: dose response in oocytes, unit M
T2 sequence (A0A7T3KAF8 1-415): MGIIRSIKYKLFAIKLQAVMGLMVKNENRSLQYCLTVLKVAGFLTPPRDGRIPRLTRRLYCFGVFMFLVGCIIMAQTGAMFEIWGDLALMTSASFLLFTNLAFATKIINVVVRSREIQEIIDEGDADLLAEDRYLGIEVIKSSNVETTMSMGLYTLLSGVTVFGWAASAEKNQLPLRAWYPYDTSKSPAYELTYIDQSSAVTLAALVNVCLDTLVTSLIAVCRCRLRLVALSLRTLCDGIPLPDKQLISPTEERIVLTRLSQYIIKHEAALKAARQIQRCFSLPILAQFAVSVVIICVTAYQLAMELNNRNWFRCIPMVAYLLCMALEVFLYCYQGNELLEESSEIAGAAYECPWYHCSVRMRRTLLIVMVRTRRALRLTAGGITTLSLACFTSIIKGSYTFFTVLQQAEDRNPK
Description: as §1
as §2, with “CA). […]” for “CA).”

HarmOR29 = HarmOR29 (Helicoverpa armigera, UniProt A0A7T3KAG0); test: Xenopus oocyte two-electrode voltage clamp, HarmOR29 + Orco; assay type: cell-based; conditions: dose response in oocytes, unit M
Description: as §1, §4

HarmOR35 = HarmOR35 (Helicoverpa armigera, UniProt A0A7T3N1A8); test: Xenopus oocyte two-electrode voltage clamp, HarmOR35 + Orco; assay type: cell-based; conditions: HarmOR35; dose response in oocytes; unit M; read-out: EC50
Description: as §1, §4

Chain of HarmOR59 (A0A7T3KAU6 entry or part of it): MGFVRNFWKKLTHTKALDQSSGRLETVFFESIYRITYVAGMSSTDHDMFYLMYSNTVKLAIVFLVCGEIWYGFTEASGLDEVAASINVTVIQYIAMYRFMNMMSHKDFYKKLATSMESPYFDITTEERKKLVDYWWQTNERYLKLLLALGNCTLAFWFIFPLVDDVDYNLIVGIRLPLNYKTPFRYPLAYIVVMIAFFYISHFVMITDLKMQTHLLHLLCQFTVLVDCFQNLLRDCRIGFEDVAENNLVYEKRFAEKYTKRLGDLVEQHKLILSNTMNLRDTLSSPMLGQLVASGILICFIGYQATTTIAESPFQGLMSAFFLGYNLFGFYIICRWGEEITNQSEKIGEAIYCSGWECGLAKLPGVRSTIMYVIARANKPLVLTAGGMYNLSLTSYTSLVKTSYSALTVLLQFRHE
Chain of HarmOR10 (A0A0G2RLT6 1-390): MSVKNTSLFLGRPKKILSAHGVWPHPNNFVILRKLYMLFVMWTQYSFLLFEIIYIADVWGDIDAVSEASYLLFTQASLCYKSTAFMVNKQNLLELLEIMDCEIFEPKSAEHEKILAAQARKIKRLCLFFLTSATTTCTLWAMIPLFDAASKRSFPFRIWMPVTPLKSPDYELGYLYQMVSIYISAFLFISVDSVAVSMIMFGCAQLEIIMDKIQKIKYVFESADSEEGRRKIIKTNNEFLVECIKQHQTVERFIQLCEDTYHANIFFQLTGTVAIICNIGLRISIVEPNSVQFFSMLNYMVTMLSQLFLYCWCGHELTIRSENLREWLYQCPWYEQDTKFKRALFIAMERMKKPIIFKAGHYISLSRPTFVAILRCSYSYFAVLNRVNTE
Chain of HarmOR29 (A0A7T3KAG0 1-395): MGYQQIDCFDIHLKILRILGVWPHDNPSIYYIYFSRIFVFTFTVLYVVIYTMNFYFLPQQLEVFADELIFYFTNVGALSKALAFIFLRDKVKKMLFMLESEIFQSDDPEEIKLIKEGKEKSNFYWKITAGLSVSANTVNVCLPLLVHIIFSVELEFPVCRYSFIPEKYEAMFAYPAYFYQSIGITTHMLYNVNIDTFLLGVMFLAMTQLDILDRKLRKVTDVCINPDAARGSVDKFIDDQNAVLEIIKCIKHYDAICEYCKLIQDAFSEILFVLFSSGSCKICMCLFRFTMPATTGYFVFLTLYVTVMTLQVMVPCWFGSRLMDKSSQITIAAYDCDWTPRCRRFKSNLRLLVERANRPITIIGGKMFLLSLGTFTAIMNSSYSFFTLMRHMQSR
Chain of HarmOR35 (A0A7T3N1A8 entry or part of it): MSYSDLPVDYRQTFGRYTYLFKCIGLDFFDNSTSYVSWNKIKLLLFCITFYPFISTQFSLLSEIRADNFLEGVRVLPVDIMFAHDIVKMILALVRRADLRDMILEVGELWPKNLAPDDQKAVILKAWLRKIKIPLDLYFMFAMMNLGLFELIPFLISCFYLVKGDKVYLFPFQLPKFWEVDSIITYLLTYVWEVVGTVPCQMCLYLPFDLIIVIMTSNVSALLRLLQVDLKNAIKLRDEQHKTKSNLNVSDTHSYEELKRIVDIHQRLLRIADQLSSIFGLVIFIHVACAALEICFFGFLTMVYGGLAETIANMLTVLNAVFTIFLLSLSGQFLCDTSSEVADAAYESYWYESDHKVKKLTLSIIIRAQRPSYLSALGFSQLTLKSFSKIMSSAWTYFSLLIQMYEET
Chain of HarmOR31 (A0A7T3N2E9 entry or part of it): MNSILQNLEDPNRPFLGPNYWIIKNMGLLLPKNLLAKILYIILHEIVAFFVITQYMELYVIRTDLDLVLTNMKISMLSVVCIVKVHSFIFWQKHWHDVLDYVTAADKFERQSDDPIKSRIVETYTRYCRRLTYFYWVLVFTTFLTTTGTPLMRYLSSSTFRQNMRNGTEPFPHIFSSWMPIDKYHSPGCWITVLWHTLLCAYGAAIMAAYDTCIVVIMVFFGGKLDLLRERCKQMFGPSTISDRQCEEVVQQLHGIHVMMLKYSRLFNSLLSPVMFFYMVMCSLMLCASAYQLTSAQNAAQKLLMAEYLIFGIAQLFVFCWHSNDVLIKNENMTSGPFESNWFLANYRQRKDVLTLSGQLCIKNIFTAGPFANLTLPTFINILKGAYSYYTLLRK
Chain of HarmOR42 (A0A7T3KAF6 entry or part of it): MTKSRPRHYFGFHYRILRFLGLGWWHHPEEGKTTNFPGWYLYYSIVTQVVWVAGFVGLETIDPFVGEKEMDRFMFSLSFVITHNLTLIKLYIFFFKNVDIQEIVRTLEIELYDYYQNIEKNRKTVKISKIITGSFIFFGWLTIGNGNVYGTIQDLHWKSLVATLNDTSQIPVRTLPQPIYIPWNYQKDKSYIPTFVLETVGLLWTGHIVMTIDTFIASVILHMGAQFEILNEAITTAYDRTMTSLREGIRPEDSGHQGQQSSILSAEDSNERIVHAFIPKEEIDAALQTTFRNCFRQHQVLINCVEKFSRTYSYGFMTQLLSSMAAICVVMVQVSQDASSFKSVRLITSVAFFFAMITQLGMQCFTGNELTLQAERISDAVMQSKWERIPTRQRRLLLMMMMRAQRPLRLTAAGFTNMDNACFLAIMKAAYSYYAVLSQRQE
Chain of HarmOR67 (A0A7T3KAH1 entry or part of it): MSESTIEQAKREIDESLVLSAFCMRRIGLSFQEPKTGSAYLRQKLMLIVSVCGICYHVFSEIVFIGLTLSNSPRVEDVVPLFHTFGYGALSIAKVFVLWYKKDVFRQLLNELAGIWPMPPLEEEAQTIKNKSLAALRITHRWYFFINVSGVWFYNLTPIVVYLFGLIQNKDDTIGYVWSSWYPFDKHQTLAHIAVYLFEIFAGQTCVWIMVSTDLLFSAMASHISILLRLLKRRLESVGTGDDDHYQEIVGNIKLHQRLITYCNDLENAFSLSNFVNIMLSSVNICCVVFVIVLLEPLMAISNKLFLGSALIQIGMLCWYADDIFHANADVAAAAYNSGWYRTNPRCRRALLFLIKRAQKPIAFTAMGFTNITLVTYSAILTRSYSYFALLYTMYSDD

## O=Cc1ccccc1 [Benzaldehyde]
HarmOR59
  EC50: 12 µM
HarmOR10
  EC50: 124 µM
HarmOR10; 67 odorants at 10^−4 M
  ligand tuning of HarmOR10: specific ligand

## CCc1ccc(C(C)=O)cc1 [4'-Ethylacetophenone]
HarmOR19
  EC50: 16.7 µM

## CCCCCCCCO [1-Octanol]
HarmOR31
  EC50: 96.1 µM
HarmOR67
  EC50: 33.1 µM

## O=C/C=C/c1ccccc1 [Cinnamaldehyde]
HarmOR59
  EC50: 1.72 µM
HarmOR42
  ligand tuning of HarmOR42: minor ligands
[1]
  ligand tuning of HarmOR42 orthologs: minor ligands
EsemOR19
  response of EsemOR19: very weak current; also recorded: responded
[2]
  EAG response of HarmOR42 knock-out mutants compared with wild-type moths: significantly decreased

## COC(=O)c1ccc(O)cc1 [Methyl 4-hydroxybenzoate]
HarmOR43
  EC50: 19.6 µM
HarmOR29
  EC50: 178 µM

## CC1(C)[C@H]2CC=C(C=O)[C@@H]1C2 [(1R)-(-)-Myrtenal]
HarmOR35
  EC50: 255 µM
